Reference: US9682995B2, “Amino-substituted isothiazoles” (BAYER PHARMA AKTIENGESELLSCHAFT, priority 2013, dated 2017)

Tests used:
Test in all cases: Kinase Profiling (KINOMEscan)
Assay type in all cases: binding
[1] = target: 456 kinases (of these 395 non-mutant kinases) (Homo sapiens, UniProt P24941); details: CDK2; 10 μM
[2] = target: 456 kinases (of these 395 non-mutant kinases) (Homo sapiens, UniProt Q8TDX7); details: NEK7; 10 μM
[3] = target: 456 kinases (of these 395 non-mutant kinases) (Homo sapiens, UniProt P42336, I800L); details: PIK3CA(I800L); 10 μM
[4] = target: 456 kinases (of these 395 non-mutant kinases) (Homo sapiens, UniProt P24723); details: PRKCH; 10 μM
[5] = target: 456 kinases (of these 395 non-mutant kinases) (Homo sapiens, UniProt O95819); details: MAP4K4; 10 μM
[6] = target: 456 kinases (of these 395 non-mutant kinases) (Homo sapiens, UniProt P31152); details: ERK4; 10 μM
[7] = target: 456 kinases (of these 395 non-mutant kinases) (Homo sapiens, UniProt Q9NWZ3); details: IRAK4; 10 μM
[8] = target: 456 kinases (of these 395 non-mutant kinases) (Homo sapiens, UniProt Q07912); details: TNK2; 10 μM
[9] = target: 456 kinases (of these 395 non-mutant kinases) (Homo sapiens, UniProt P35916); details: FLT4; 10 μM
[10] = target: 456 kinases (of these 395 non-mutant kinases) (Homo sapiens, UniProt Q05397); details: FAK; 10 μM
[11] = target: 456 kinases (of these 395 non-mutant kinases) (Homo sapiens, UniProt P14616); details: INSRR; 10 μM
[12] = target: 456 kinases (of these 395 non-mutant kinases) (Homo sapiens, UniProt P08631); details: HCK; 10 μM
[13] = target: 456 kinases (of these 395 non-mutant kinases) (Homo sapiens, UniProt P12931); details: SRC; 10 μM
[14] = target: 456 kinases (of these 395 non-mutant kinases) (Homo sapiens, UniProt Q15835); details: GRK1; 10 μM
[15] = target: 456 kinases (of these 395 non-mutant kinases) (Mycobacterium tuberculosis, UniProt P9WI81)
[16] = target: 456 kinases (of these 395 non-mutant kinases) (Homo sapiens, UniProt P80192); details: MLK1; 10 μM
[17] = target: 456 kinases (of these 395 non-mutant kinases) (Homo sapiens, UniProt P22694); details: PKAC-beta; 10 μM
[18] = target: 456 kinases (of these 395 non-mutant kinases) (Homo sapiens, UniProt P32298); details: GRK4; 10 μM
[19] = target: 456 kinases (of these 395 non-mutant kinases) (Homo sapiens, UniProt P08922); details: ROS1; 10 μM
[20] = target: 456 kinases (of these 395 non-mutant kinases) (Homo sapiens, UniProt O43293); details: DAPK3; 10 μM
[21] = target: 456 kinases (of these 395 non-mutant kinases) (Homo sapiens, UniProt P00519, Y253F); details: ABL1(Y253F)-phosphorylated; 10 μM
[22] = target: 456 kinases (of these 395 non-mutant kinases) (Homo sapiens, UniProt Q9NRP7); details: STK36; 10 μM
[23] = target: 456 kinases (of these 395 non-mutant kinases) (Homo sapiens, UniProt Q9BYP7); details: WNK3; 10 μM
[24] = target: 456 kinases (of these 395 non-mutant kinases) (Homo sapiens, UniProt Q13153); details: PAK1; 10 μM
[25] = target: 456 kinases (of these 395 non-mutant kinases) (Homo sapiens, UniProt P10721, V559D); details: KIT(V559D); 10 μM
[26] = target: 456 kinases (of these 395 non-mutant kinases) (Homo sapiens, UniProt Q9BYT3); details: STK33; 10 μM
[27] = target: 456 kinases (of these 395 non-mutant kinases) (Homo sapiens, UniProt P22607, G697C); details: FGFR3(G697C); 10 μM
[28] = target: 456 kinases (of these 395 non-mutant kinases) (Homo sapiens, UniProt Q13976); details: PRKG1; 10 μM
[29] = target: 456 kinases (of these 395 non-mutant kinases) (Homo sapiens, UniProt P57059); details: SIK; 10 μM
[30] = target: 456 kinases (of these 395 non-mutant kinases) (Homo sapiens, UniProt P36888, N841I); details: FLT3(N841I); 10 μM
[31] = target: 456 kinases (of these 395 non-mutant kinases) (Homo sapiens, UniProt P07947); details: YES; 10 μM
[32] = target: 456 kinases (of these 395 non-mutant kinases) (Homo sapiens, UniProt P36888, D835Y); details: FLT3(D835Y); 10 μM

Sequence of 456 kinases (of these 395 non-mutant kinases) (Homo sapiens, UniProt P08922) (P08922 28-2347 limits assumed, change not shown): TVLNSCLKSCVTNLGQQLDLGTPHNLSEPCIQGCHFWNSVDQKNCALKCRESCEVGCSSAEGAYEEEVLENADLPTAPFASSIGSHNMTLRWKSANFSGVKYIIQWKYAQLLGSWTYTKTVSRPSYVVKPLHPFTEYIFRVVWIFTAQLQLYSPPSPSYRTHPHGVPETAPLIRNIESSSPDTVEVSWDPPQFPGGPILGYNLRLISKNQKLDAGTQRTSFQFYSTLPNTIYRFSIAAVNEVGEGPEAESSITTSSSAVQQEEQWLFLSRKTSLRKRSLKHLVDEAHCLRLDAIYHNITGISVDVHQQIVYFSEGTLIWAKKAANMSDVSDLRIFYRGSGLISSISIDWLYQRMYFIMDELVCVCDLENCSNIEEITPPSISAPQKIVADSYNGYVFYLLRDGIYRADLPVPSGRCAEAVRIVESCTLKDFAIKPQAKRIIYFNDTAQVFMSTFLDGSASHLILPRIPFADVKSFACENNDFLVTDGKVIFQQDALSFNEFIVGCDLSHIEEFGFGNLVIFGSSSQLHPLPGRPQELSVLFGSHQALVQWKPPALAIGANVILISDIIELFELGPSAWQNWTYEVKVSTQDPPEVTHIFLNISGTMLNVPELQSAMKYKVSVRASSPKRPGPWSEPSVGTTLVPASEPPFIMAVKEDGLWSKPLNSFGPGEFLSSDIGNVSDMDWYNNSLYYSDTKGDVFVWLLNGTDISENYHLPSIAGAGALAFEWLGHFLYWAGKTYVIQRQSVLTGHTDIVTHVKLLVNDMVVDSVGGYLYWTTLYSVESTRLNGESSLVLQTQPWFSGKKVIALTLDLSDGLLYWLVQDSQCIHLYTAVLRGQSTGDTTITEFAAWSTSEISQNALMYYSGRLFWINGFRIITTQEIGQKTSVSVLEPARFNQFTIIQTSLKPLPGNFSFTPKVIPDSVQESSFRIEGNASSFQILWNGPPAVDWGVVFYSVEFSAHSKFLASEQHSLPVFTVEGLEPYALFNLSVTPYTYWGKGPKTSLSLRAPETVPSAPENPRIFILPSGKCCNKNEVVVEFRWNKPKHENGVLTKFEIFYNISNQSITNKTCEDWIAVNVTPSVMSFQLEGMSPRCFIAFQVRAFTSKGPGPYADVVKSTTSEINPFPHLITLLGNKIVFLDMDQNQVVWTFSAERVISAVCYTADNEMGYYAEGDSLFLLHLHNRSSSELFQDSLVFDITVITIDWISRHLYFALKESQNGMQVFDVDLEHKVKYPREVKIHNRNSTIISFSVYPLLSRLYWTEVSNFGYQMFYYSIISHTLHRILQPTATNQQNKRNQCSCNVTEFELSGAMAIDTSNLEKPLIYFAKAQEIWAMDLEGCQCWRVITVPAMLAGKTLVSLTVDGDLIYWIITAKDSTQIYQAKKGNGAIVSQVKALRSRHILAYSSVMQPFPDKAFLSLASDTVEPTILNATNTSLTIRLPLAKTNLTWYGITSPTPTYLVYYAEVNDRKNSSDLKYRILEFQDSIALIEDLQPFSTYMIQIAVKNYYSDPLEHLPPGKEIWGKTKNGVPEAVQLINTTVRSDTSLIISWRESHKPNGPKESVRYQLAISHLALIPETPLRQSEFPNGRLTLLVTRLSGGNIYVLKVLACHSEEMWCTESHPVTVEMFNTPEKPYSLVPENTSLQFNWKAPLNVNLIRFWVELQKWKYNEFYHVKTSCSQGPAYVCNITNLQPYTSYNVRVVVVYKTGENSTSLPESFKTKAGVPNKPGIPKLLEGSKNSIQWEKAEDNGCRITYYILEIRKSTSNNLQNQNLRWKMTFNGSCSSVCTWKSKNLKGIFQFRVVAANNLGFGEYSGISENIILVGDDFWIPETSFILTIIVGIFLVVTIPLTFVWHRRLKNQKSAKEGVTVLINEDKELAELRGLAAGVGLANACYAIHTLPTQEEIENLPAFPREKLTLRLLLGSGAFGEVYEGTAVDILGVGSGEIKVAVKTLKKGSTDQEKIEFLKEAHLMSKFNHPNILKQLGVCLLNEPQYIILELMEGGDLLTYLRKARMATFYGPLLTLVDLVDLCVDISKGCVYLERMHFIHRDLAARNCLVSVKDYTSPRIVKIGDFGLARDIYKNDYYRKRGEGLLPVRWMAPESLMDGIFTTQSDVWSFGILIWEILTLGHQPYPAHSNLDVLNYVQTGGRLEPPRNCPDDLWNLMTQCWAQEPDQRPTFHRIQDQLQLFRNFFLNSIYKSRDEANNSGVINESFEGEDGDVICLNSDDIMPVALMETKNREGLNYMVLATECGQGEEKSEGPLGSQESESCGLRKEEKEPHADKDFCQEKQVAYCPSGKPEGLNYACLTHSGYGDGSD
Sequence of 456 kinases (of these 395 non-mutant kinases) (Homo sapiens, UniProt P10721, V559D) (P10721 26-976 V559D limits assumed): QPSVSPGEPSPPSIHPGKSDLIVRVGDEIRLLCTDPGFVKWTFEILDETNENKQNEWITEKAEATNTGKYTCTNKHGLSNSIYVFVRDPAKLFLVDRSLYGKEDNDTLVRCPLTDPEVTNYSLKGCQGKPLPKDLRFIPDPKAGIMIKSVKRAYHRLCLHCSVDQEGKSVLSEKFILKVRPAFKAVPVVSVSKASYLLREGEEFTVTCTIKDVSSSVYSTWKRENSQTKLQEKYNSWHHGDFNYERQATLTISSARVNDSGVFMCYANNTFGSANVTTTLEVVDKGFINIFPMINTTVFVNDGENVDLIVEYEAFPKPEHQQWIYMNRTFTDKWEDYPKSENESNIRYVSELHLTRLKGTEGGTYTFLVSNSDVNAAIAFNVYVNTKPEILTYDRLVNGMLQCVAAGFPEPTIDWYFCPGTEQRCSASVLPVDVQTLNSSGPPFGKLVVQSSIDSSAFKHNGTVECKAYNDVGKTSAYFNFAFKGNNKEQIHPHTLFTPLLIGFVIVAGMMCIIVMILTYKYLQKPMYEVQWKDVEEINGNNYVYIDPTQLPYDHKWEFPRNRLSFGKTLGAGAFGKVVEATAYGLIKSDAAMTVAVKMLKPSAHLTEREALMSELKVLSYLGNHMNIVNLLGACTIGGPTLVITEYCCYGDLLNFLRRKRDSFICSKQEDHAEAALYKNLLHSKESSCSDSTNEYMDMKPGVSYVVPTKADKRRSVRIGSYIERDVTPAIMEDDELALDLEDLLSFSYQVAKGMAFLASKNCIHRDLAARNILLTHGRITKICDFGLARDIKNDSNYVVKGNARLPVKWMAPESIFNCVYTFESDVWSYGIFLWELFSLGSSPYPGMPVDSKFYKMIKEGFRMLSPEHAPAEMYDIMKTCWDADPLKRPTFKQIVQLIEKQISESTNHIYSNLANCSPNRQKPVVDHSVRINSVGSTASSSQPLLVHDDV
Sequence of 456 kinases (of these 395 non-mutant kinases) (Homo sapiens, UniProt Q13976) (Q13976 2-671 limits assumed, change not shown): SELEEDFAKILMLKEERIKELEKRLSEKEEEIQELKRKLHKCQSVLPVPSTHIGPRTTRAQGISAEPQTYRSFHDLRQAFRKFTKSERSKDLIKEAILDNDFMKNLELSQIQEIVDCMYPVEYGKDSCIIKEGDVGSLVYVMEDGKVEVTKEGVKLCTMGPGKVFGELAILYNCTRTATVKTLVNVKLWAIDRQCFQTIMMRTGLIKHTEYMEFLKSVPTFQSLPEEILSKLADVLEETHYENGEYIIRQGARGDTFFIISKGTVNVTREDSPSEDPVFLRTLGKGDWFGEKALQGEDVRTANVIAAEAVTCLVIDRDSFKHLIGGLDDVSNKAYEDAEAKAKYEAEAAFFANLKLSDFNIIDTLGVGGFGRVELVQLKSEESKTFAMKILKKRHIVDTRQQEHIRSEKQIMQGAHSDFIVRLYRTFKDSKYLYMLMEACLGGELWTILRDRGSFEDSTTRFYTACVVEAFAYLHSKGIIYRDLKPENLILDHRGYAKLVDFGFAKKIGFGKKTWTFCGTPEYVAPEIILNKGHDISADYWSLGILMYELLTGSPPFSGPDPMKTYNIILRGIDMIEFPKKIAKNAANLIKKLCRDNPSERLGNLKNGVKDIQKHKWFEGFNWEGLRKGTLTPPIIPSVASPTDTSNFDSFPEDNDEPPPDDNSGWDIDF
Sequence of 456 kinases (of these 395 non-mutant kinases) (Homo sapiens, UniProt P07947) (P07947 2-543 limits assumed, stated change not applied): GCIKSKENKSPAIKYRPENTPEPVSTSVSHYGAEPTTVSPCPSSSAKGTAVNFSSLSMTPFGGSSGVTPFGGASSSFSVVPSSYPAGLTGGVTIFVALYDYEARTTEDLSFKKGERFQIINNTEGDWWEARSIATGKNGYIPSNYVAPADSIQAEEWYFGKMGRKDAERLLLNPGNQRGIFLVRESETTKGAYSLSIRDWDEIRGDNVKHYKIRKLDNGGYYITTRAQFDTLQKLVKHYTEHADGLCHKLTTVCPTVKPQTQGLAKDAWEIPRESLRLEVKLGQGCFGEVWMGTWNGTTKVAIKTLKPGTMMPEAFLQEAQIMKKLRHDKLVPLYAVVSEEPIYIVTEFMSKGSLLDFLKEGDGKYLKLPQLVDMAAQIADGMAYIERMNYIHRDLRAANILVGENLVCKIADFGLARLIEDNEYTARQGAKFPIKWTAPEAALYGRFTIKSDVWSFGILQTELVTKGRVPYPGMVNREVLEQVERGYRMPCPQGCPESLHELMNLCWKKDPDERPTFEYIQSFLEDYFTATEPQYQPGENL
Sequence of 456 kinases (of these 395 non-mutant kinases) (Homo sapiens, UniProt Q13153) (Q13153 2-545 limits assumed, stated change not applied): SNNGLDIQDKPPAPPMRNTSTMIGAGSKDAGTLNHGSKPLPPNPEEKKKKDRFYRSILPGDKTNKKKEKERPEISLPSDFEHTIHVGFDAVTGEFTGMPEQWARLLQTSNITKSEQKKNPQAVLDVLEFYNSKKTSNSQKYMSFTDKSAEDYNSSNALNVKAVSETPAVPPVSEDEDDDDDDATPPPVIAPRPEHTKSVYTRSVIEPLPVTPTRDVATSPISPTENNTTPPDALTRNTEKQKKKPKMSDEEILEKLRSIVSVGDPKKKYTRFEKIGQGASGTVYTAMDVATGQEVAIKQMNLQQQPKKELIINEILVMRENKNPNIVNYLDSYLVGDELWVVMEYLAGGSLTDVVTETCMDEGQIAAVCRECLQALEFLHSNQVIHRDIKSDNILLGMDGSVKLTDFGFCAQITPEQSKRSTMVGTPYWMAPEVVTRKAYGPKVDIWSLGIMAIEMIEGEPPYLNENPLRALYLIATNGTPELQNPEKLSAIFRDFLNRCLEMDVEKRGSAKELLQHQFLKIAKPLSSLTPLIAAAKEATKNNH

CCc1ccccc1NC(=O)c1c(C)nsc1Nc1cnc2cc(F)ccc2n1 [Example 20, N-(2-Ethylphenyl)-5-[(6-fluoroquinoxalin-2-yl)amino]-3-methyl-1,2-thiazole-4-carboxamide]
% Ctrl @ 10 μM [1]: 100 % Ctrl
% Ctrl @ 10 μM [2]: 79 % Ctrl
% Ctrl @ 10 μM [3]: 93 % Ctrl
% Ctrl @ 10 μM [4]: 100 % Ctrl
% Ctrl @ 10 μM [5]: 100 % Ctrl
% Ctrl @ 10 μM [6]: 88 % Ctrl
% Ctrl @ 10 μM [7]: 100 % Ctrl
% Ctrl @ 10 μM [8]: 93 % Ctrl
% Ctrl @ 10 μM [9]: 87 % Ctrl
% Ctrl @ 10 μM [10]: 94 % Ctrl
% Ctrl @ 10 μM [11]: 76 % Ctrl
% Ctrl @ 10 μM [12]: 59 % Ctrl
% Ctrl @ 10 μM [13]: 100 % Ctrl
% Ctrl @ 10 μM [14]: 100 % Ctrl
% Ctrl @ 10 μM [15]: 100 % Ctrl
% Ctrl @ 10 μM [16]: 100 % Ctrl
% Ctrl @ 10 μM [17]: 82 % Ctrl
% Ctrl @ 10 μM [18]: 77 % Ctrl
% Ctrl @ 10 μM [19]: 89 % Ctrl
% Ctrl @ 10 μM [20]: 72 % Ctrl
% Ctrl @ 10 μM [21]: 100 % Ctrl
% Ctrl @ 10 μM [22]: 75 % Ctrl
% Ctrl @ 10 μM [23]: 100 % Ctrl
% Ctrl @ 10 μM [24]: 100 % Ctrl
% Ctrl @ 10 μM [25]: 61 % Ctrl
% Ctrl @ 10 μM [26]: 100 % Ctrl
% Ctrl @ 10 μM [27]: 87 % Ctrl
% Ctrl @ 10 μM [28]: 90 % Ctrl
% Ctrl @ 10 μM [29]: 100 % Ctrl
% Ctrl @ 10 μM [30]: 84 % Ctrl
% Ctrl @ 10 μM [31]: 90 % Ctrl
% Ctrl @ 10 μM [32]: 100 % Ctrl
